{"source": "patent US20050042178A1", "about": "“Microparticles containing the CGRP-antagonist 1-[N2-[3,5-dibrom-N-[[4-(3,4-dihydro-2(1H)-oxoquinazoline-3-yl)-1-piperidinyl]carbonyl]-D-tyrosyl]-L-lysyl]-4-(4-pyridinyl)-piperazine, process for preparing and the use thereof as inhalation powder” (Boehringer Ingelheim International GmbH, priority 2003, published 2005)", "origin": "cited, not measured here", "settings": "conventional formulations", "data": [{"molecule": "NCCCC[C@H](NC(=O)[C@@H](Cc1cc(Br)c(O)c(Br)c1)NC(=O)N1CCC(N2Cc3ccccc3NC2=O)CC1)C(=O)N1CCN(c2ccncc2)CC1", "note": "[A, 1-[N^2-[3,5-dibromo-N-[[4-(3,4-dihydro-2(1H)-oxoquinazolin-3-yl)-1-piperidinyl]carbonyl]-D-tyrosyl]-L-lysyl]-4-(4-pyridinyl)-piperazine]", "values": [{"measurement": "oral bioavailability", "result": "very limited"}]}]}
